The values that follow come from publication PMC2440032, “Odorranalectin Is a Small Peptide Lectin with Potential for Drug Delivery and Targeting” (PLoS ONE, 2008).

The test system of test [1] is odorranalectin-mediated erythrocytes hemagglutination. In words: Hemagglutination-inhibition test. The class given is cell-based, rabbit. Particulars: for MIC, minimum concentration to inhibit odorranalectin-mediated erythrocytes hemagglutination: inhibition of four hemagglutination doses of odorranalectin. How it is done: Intact, pronase-treated, trypsin-treated, and formaldehyde-treated rabbit erythrocytes were prepared. Assays were carried out in U-well microtiter plates (96 wells) as described previously [21]–[23]. The details are provided in the supplementary materials (Materials and Methods S1).
Inhibition was expressed as the minimum concentration of each sugar or glycoprotein required for inhibition of hemagglutination of titer 4 of the lectin.

Test [2] has as its target immobilized odorranalectin (Odorrana grahami, UniProt B3TFE9). Kind of test: SPR, analytes on immobilized odorranalectin. The class given is binding. How it is done: Real time detection of odorranalectin and its mutants binding to glycoproteins and L-fucose was recorded by using a Biacore 3000 [21]–[24]. The details are provided in the supplementary materials (Materials and Methods S1).
SPR Analysis. Real time detection of odorranalectin and its mutants binding to glycoproteins and L-fucose was recorded by using a Biacore 3000 [21-24]. Odorranalectin was immobilized covalently via their primary amines to carboxyl groups within a dextran layer on the sensor chip CM-5 according to the manufacturer’s specifications. After chip activation with 0.4 M 1-ethyl-3- (3-dimethylaminopropyl) carbodiimide hydrochloride and 10 mM N-hydroxysuccinimide, odorranalectin or its mutants (in 10 mM sodium acetate buffer, pH 4.0) at a concentration of 100 μg/ml was passed through the flow cells at a rate of 5 μl/min. After immobilization, the chip was capped by exposure to 1 M ethanolamine (pH 8.5).
All analyses were performed at a flow rate of 30 μl/min. Before loading of analytes, the chip was equilibrated with 10 mM HEPES-buffered saline containing 3 mM EDTA and 0.005% surfactant P-20, pH 7.4 (HBS-EP). Each analyte at various concentrations in the same buffer was injected over the immobilized ligand for 4 min. After injection of the analyte, HBS-EP was introduced onto the sensor surface to start dissociation, and dissociation data were collected for 5 min. The chip was regenerated by injection of 5μl of 10 mM HCl or NaOH, followed by HBS-EP.
Association and dissociation rate constants (ka and kd) were calculated by using BIA evaluation 4.0 software (Biacore AB, Sweden). The affinity constant (KD) was calculated from the ka and kd. For the calculation of rate constants, samples were appropriately diluted in HBS-EP at various concentrations.

Setting [3] is: SPR Biacore 3000, CM-5 chip, HBS-EP pH 7.4, 1:1 binding model.

Several values for one entry are separate records, joined by “and”; a condition that tells them apart may be missing. Equal entries are not always repeated.

For the molecule `OC1OC[C@@H](O)[C@@H](O)[C@@H]1O` (stereo partly drawn) [D(+)-arabinose], in test [1] (sugars), the “MIC, minimum concentration to inhibit odorranalectin-mediated erythrocytes hemagglutination” value is greater than 200 mM. For `OC[C@H]1O[C@@H](Oc2c[nH]c3ccc(Br)c(Cl)c23)[C@H](O)[C@@H](O)[C@H]1O` [5-bromo-4-chloro-3-indoxyl-β-D-galactopyranoside], in test [1] (sugars), the “MIC, minimum concentration to inhibit odorranalectin-mediated erythrocytes hemagglutination” value was greater than 200 mM.

Turning to `C[C@@H]1O[C@@H](O)[C@H](O)[C@H](O)[C@H]1O.O` [L(+)-rhamnose monohydrate], the “MIC, minimum concentration to inhibit odorranalectin-mediated erythrocytes hemagglutination” value in test [1] (sugars) is listed as greater than 200 mM.

With `C[C@H](O)[C@@H](O)[C@@H](O)[C@H](O)C=O` [L-fucose, reference compound], the minimal effective concentration in test [1] (Oryctolagus cuniculus, Erythrocyte, read-out: MIC, minimum concentration to inhibit odorranalectin-mediated erythrocytes hemagglutination) is 12500 µM. The Kd in test [2] (SPR Biacore 3000, CM-5 chip, HBS-EP pH 7.4, calculated from ka and kd) is 54.7 µM. Moreover, in test [2] (pH 7.4, read-out: ka), the kon amounted to 159 M⁻¹ s⁻¹. Also, the koff in test [2] (pH 7.4, read-out: kd) is 0.00867 s⁻¹. With `OC[C@H]1OC(O)[C@H](O)[C@@H](O)[C@@H]1O` (stereo partly drawn) [D-glucose], in test [1] (sugars), the “MIC, minimum concentration to inhibit odorranalectin-mediated erythrocytes hemagglutination” value is given as greater than 200 mM. Take `OC[C@H]1O[C@H](O[C@H]2O[C@H](CO)[C@@H](O)[C@H](O)[C@H]2O)[C@H](O)[C@@H](O)[C@@H]1O` [D-trehalose]: in test [1] (sugars), the “MIC, minimum concentration to inhibit odorranalectin-mediated erythrocytes hemagglutination” value is given as greater than 200 mM.

Regarding “Fetuin: glycoprotein used as analyte and inhibitor”, in test [1], the “Inhibition of the hemagglutinating activity of odorranalectin by glycoproteins (in words)” value is reported as “most effective inhibitor”. For the same molecule, in test [1] (glycoproteins), the “MIC, minimum concentration to inhibit odorranalectin-mediated erythrocytes hemagglutination” value was 15.63 µg/mL and 15.6 µg/mL. In test [2] (setting [3]), this molecule had a ka of 2890 M⁻¹ s⁻¹ and a kd of 0.00061 s⁻¹. For the molecule `OC1COC(O)C(O)C1O` (stereo not drawn) [D(+)-xylose], the “MIC, minimum concentration to inhibit odorranalectin-mediated erythrocytes hemagglutination” value in test [1] (sugars) is greater than 200 mM. Take `O=[N+]([O-])c1ccccc1O[C@@H]1O[C@H](CO)[C@H](O)[C@H](O)[C@H]1O` [2-nitrophenyl-β-D-galactopyranoside]: in test [1] (sugars), the “MIC, minimum concentration to inhibit odorranalectin-mediated erythrocytes hemagglutination” value is greater than 200 mM. As to `O=C(CO)N[C@H]1[C@H]([C@H](O)[C@H](O)CO)OC(O)(C(=O)O)C[C@@H]1O` (stereo partly shown) [N-glycolylneuraminc acid], the “MIC, minimum concentration to inhibit odorranalectin-mediated erythrocytes hemagglutination” value in test [1] (sugars) is recorded as greater than 200 mM. Turning to `CC(=O)N[C@@H]1[C@@H](O)[C@@H](O)[C@@H](CO)O[C@@H]1O` [N-acetylgalactosamine], in test [1] (sugars), the “MIC, minimum concentration to inhibit odorranalectin-mediated erythrocytes hemagglutination” value is greater than 200 mM. For the molecule “Transferrin: glycoprotein used as analyte”, the “Inhibition of the hemagglutinating activity of odorranalectin by glycoproteins (in words)” value in test [1] was “All the glycoproteins except transferrin could inhibit”. In test [2] (SPR), the “Binding to immobilized odorranalectin (in words)” value is recorded as “did not bind”. For `OC[C@@H](O)[C@H](O)[C@H](O)[C@@H](O)CO` [dulcitol], the “MIC, minimum concentration to inhibit odorranalectin-mediated erythrocytes hemagglutination” value in test [1] (sugars) is greater than 200 mM. On to `O.O.O.O.O.OC[C@H]1O[C@H](OC[C@H]2O[C@H](O[C@]3(CO)O[C@H](CO)[C@@H](O)[C@@H]3O)[C@H](O)[C@@H](O)[C@@H]2O)[C@H](O)[C@@H](O)[C@H]1O` [D(+)-raffinose pentahydrate], for which, in test [1] (sugars), the “MIC, minimum concentration to inhibit odorranalectin-mediated erythrocytes hemagglutination” value was greater than 200 mM. Turning to `CC(C)S[C@@H]1O[C@H](CO)[C@H](O)[C@H](O)[C@H]1O` [isopropy-β-D-thiogalactoside], in test [1] (sugars), the “MIC, minimum concentration to inhibit odorranalectin-mediated erythrocytes hemagglutination” value is greater than 200 mM.

Regarding `OC[C@H]1O[C@@H](O[C@H]2[C@H](O)[C@@H](O)[C@H](O)O[C@@H]2CO)[C@H](O)[C@@H](O)[C@@H]1O` [D(+)-cellobiose], the “MIC, minimum concentration to inhibit odorranalectin-mediated erythrocytes hemagglutination” value in test [1] (sugars) is given as greater than 200 mM. For `O.OC[C@H]1O[C@@](CO)(O[C@H]2O[C@H](CO)[C@@H](O)[C@H](O)[C@H]2O)[C@@H](O[C@H]2O[C@H](CO)[C@@H](O)[C@H](O)[C@H]2O)[C@@H]1O` [D(+)-melezitose monohydrate], the “MIC, minimum concentration to inhibit odorranalectin-mediated erythrocytes hemagglutination” value in test [1] (sugars) is recorded as greater than 200 mM.

With inulin, the “MIC, minimum concentration to inhibit odorranalectin-mediated erythrocytes hemagglutination” value in test [1] (sugars) is given as greater than 200 mM.

As to heparin, the “MIC, minimum concentration to inhibit odorranalectin-mediated erythrocytes hemagglutination” value in test [1] (sugars) is on record as greater than 200 mM. The same measure, in the same setting: the same measure for `CC(=O)N[C@@H]1C(O)O[C@H](CO)[C@@H](O)[C@@H]1O` (stereo partly drawn) [N-acetyl-D-mannosamine]: greater than 200 mM. In the case of `O=C(CO)[C@H](O)[C@@H](O)[C@H](O)CO` [D-sorbose], in test [1] (sugars), the “MIC, minimum concentration to inhibit odorranalectin-mediated erythrocytes hemagglutination” value is listed as greater than 200 mM. With D(+)-maltose monohydrate, in test [1] (sugars), the “MIC, minimum concentration to inhibit odorranalectin-mediated erythrocytes hemagglutination” value is greater than 200 mM.

As for `O=C(O)[C@H]1OC(O)[C@H](O)[C@@H](O)[C@H]1O` (stereo partly drawn) [D(+)-galacturonic acid], the “MIC, minimum concentration to inhibit odorranalectin-mediated erythrocytes hemagglutination” value in test [1] (sugars) was greater than 200 mM. For `OC[C@H]1OC(O)[C@H](O)[C@@H](O)[C@H]1O` (stereo partly drawn) [D(+)-galactose], the “MIC, minimum concentration to inhibit odorranalectin-mediated erythrocytes hemagglutination” value in test [1] (sugars) is reported as greater than 200 mM.
